For 75 compounds, Potency and outcome results are on record in PubChem BioAssay AID1199 (EPA DSSTox, 2008).

This data set has as its system mouse carcinogenicity bioassay, TD50 from CPDB. Briefly: DSSTox (CPDBAS) Carcinogenic Potency Database Summary Mouse Bioassay Results. The text has this: The Carcinogenic Potency Database (CPDB) is a unique and widely used international resource of the results of over 6500 chronic, long-term animal cancer tests on over 1500 chemical substances. The CPDB provides easy access to the bioassay literature, with qualitative and quantitative analyses of both positive and negative experiments that have been published over the past 50 years in the general literature and by the National Cancer Institute/National Toxicology Program. The CPDB standardizes the diverse literature of cancer bioassays that vary widely in protocol, histopathological examination and nomenclature, and in the published author's choices of what information to provide in their papers. Results are reported in the CPDB for tests in rats, mice, hamsters, dogs, and nonhuman primates, and are based on the most positive result among all experiments for each sex-species. The DSSTox CPDBAS (all species) file incorporates data from the CPDB Summary Tables for the full list of over 1500 chemical substances tested in at least one species. Summary bioassay results for Mouse (TD50, tumor sites, male, female, both sexes) are provided in the CPDB Summary Tables and the DSSTox CPDBAS file for over 1000 chemical substances.
TD50 is a standardized quantitative measure of carcinogenic potency (analogous to an LD50) and is reported in the CPDB Summary Table for each species. Activity Score for actives is computed by mapping of LOG10 (1/TD50_Mouse_mmol) activity values spanning range [MIN, MAX] onto Integer 1-100 Activity Score range, where 100 is highest potency and 1 is lowest: Activity Score = 100 * INTEGER[(log10(1/Activity) - MIN)/(MAX […] MIN)]. If activity is reported but no TD50_Mouse_mmol value is computed, such as for a mixture, the Activity Score is assigned the activity value "50". […] Target sites are reported for each sex-species group with a positive result in the CPDB on the basis of a positive author's opinion for the particular site, using all results from both the general literature and NCI/NTP bioassays. If a chemical has two or more target sites listed, the results may be from different experiments, and a single site may be a target organ in more than one experiment, as well. Blank entry in TargetSites field indicates no results reported.

[1] abbreviates: TD50_Mouse_Note: no positive results, TargetSites_Mouse_Female: no positive results.
Where [2] appears, read: TD50_Mouse_Note: TD50 is harmonic mean of more than one positive test, TargetSites_Mouse_Female: liver.
Where [3] appears, read: TD50_Mouse_Note: TD50 is harmonic mean of more than one positive test, TargetSites_Mouse_Female: lung.
The mark [4] stands for this setting: TD50_Mouse_Note: TD50 is harmonic mean of more than one positive test, TargetSites_Mouse_Female: stomach.
[5] abbreviates: TD50_Mouse_Note: TD50 is harmonic mean of more than one positive test, TargetSites_Mouse_Female: harderian gland, stomach.
Where [6] appears, read: TargetSites_Mouse_Female: liver.

Calls of active or inactive are those of the source.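 The calls were made as follows: active = a tumour-causing dose and a tumour site recorded for mice in at least one sex group; inconclusive = only government mouse studies exist and were judged inadequate; inactive = mouse studies exist but none gave tumours.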

For `CCCC/C=N/N(C)C=O`, for the setting “TD50_Mouse_Note: TD50 is harmonic mean of more than one positive test, TargetSites_Mouse_Female: liver, lung”, the Potency is 0.0241 mmol/kg/day. As to `COS(C)(=O)=O`, the Potency was 0.289 mmol/kg/day. `O=C1c2ccccc2C(=O)c2ccccc21`: the outcome under setting [1] was “inactive; no positive results”.

As for `CN=C(NC#N)NCCSCc1nc[nH]c1C`, the outcome under setting [1] was inactive.

Regarding `CN(C)C=O`, the outcome under setting [1] is “inactive; no positive results”.

Turning to `CCC(=O)C(CC(C)N(C)C)(c1ccccc1)c1ccccc1` (configuration not stated), the outcome under setting [1] is “inactive; no positive results”.

Turning to `OC(Cn1cncn1)(Cn1cncn1)c1ccc(F)cc1F`, under setting [1], the outcome was “inactive; no positive results”. As for `CNC(=O)O/N=C/C(C)(C)SC`, under setting [1], the outcome was “inactive; no positive results”.

In the case of `O=[N+]([O-])c1ccc(Oc2ccc(Cl)cc2Cl)cc1`, the Potency under setting [2] is 0.405 mmol/kg/day.

`N#[N+]c1ccccc1`: the Potency under setting [3] is 0.0712 mmol/kg/day. For `Nc1ncn([C@@H]2O[C@H](CO)[C@@H](O)[C@H]2O)c(=O)n1`, where the note is “TD50_Mouse_Note: positive test results only by intraperitoneal or intravenous injection, TD50 is harmonic mean of more than one positive, TargetSites_Mouse_Female: hematopoietic system, mammary gland, skin”, the Potency was 0.000317 mmol/kg/day.

As to `Clc1ccc(C(c2ccc(Cl)cc2)C(Cl)Cl)cc1`, the Potency under setting [3] is 0.0959 mmol/kg/day. As to `C=CCNN`, the Potency (TD50_Mouse_Note: TD50 is harmonic mean of more than one positive test, TargetSites_Mouse_Female: lung, vascular system) is 0.315 mmol/kg/day. As for `Cc1cc(N=Nc2c(O)ccc3ccccc23)c(S(=O)(=O)O)cc1Cl`, under setting [1], the outcome was “inactive; no positive results”. Same read-out and setting: the entry for `CCCCN(CCCC)C(=S)[S-].CCCCN(CCCC)C(=S)[S-].[Zn+2]` is “inactive; no positive results”. For `CC(C)CON=O`, the Potency under setting [3] is 3.01 mmol/kg/day. Turning to `CN(C)CCOC(C)(c1ccccc1)c1ccccn1` (configuration not stated), the Potency (TD50_Mouse_Note: TD50 is harmonic mean of more than one positive test, TargetSites_Mouse_Female: liver, thyroid gland) was 0.538 mmol/kg/day. `Cc1cccc(OCC(O)CNC(C)(C)C)c1C` (configuration not stated): the outcome under setting [1] is “inactive; no positive results”. Consider `NC(=O)c1cccnc1`, for which the outcome under setting [1] is “inactive; no positive results”. Same read-out and setting: the entry for `CC(Cl)(Cl)Cl` is “inactive; no positive results”; for `CCN(CC)C(=S)S[Te](SC(=S)N(CC)CC)(SC(=S)N(CC)CC)SC(=S)N(CC)CC` it is “inactive; no positive results”.

As to `C[C@H](CCC(=O)O)[C@H]1CC[C@H]2[C@@H]3CC[C@@H]4C[C@H](O)CC[C@]4(C)[C@H]3CC[C@]12C`, the outcome under setting [1] was “inactive; no positive results”. As to `O=C(O)CC[N+](=O)[O-]`, the outcome under setting [1] is “inactive; no positive results”. Consider `O=C1CCO1`, for which the Potency under setting [4] was 0.0172 mmol/kg/day.

For the compound `C=CCN=C=S`, under setting [1], the outcome is “inactive; no positive results”.

In the case of `CCCCN(CC)C(=O)SCCC`, the outcome under setting [1] was “inactive; no positive results”. On to `CCC1(c2ccccc2)C(=O)N=C(O)NC1=O` (configuration not stated), for which the Potency (TD50_Mouse_Note: TD50 is harmonic mean of more than one positive test, harmonic mean of TD50 includes a value for upper 99% confidence li, TargetSites_Mouse_Female: liver) was 0.117 mmol/kg/day. As to `CN[C@@H](C)[C@H](O)c1ccccc1`, the outcome under setting [1] is “inactive; no positive results”. Still for that read-out and setting: the entry for `CN(C)C(=S)[S][Pb][S]C(=S)N(C)C` is “inactive; no positive results”. Regarding `CC(C)CCCCCCOC(=O)c1ccccc1C(=O)OCCCCCCC(C)C`, the outcome (TD50_Mouse_Note: TD50 is harmonic mean of more than one positive test, TD50_Mouse_mmol was not calculated for this mixture, but Activiity, TargetSites_Mouse_Female: liver) is “active; liver”. Turning to `COC(=O)C(c1ccccc1)C1CCCCN1` (configuration not stated), under setting [2], the Potency was 0.371 mmol/kg/day. For `Cc1ccc(/C(=C\CN2CCCC2)c2ccccn2)cc1`, under setting [1], the outcome is “inactive; no positive results”. As to `C=CC(OC(C)=O)c1ccc2c(c1)OCO2` (configuration not stated), the outcome (TD50_Mouse_Note: no positive results) was “inactive; no positive results”. For `O=C(Oc1ccccc1)Oc1ccccc1`, the outcome under setting [1] was “inactive; no positive results”. Consider `CC(C)(C)O`, for which the Potency (TargetSites_Mouse_Female: thyroid gland) is 295 mmol/kg/day. In the case of `O=C1O[C@H]([C@H](O)CO)C(O)=C1O`, the outcome under setting [1] was “inactive; no positive results”. For the compound `Nc1ccc(Cl)cc1N`, the Potency under setting [2] was 9.4 mmol/kg/day. Regarding `OC[C@@H](O)[C@@H](O)[C@H](O)[C@H](O)CO[C@H]1O[C@H](CO)[C@@H](O)[C@H](O)[C@H]1O`, under setting [1], the outcome is “inactive; no positive results”.

Take `C=CC#N`: the Potency under setting [5] is 0.119 mmol/kg/day. Take `S=C(SSSSSSC(=S)N1CCCCC1)N1CCCCC1`: under setting [1], the outcome is “inactive; no positive results”. As for `O=[N+]([O-])c1cc(N(CCO)CCO)ccc1NCCO`, the outcome under setting [1] is “inactive; no positive results”. Take `N[C@@H](Cc1ccc(N(CCCl)CCCl)cc1)C(=O)O`: the Potency (TD50_Mouse_Note: positive test results only by intraperitoneal or intravenous injection, TD50 is harmonic mean of more than one positive, TargetSites_Mouse_Female: lung) is 0.000491 mmol/kg/day. On to `CN(C)CCOC(c1ccccc1)c1ccccc1`, for which, under setting [1], the outcome is “inactive; no positive results”. `Cc1cc(Cl)ccc1OCC(=O)O`: the outcome under setting [1] was “inactive; no positive results”. For the compound `CN1C(=O)C[C@@H](C(=O)N[C@@H](Cc2cnc[nH]2)C(=O)N2CCC[C@H]2C(N)=O)NC1=O`, under setting [1], the outcome was “inactive; no positive results”. On to `O=C1CCc2ccccc2O1`, for which, under setting [6], the Potency is 4.88 mmol/kg/day. For the compound `Clc1c(Cl)c(Cl)c(Cl)c(Cl)c1Cl`, under setting [2], the Potency was 0.229 mmol/kg/day. Take `O=Nc1ccc(NO)cc1`: the outcome under setting [1] was “inactive; no positive results”. As for `Nc1ccc(Cc2ccc(N)cc2)cc1`, the Potency (TD50_Mouse_Note: TD50 is harmonic mean of more than one positive test, TargetSites_Mouse_Female: hematopoietic system, liver, thyroid gland) is 0.119 mmol/kg/day.

As for `CC(O)CCl` (configuration not stated), the outcome under setting [1] was “inactive; no positive results”. For the compound `Nc1c(F)c(N)c(F)c(F)c1F`, the Potency (TargetSites_Mouse_Female: no positive results) is 0.341 mmol/kg/day. For `C=C(C)CCl`, the Potency under setting [5] was 11 mmol/kg/day and the Potency under setting [4] was 0.858 mmol/kg/day. `CN(C)C(=S)SSC(=S)N(C)C`: the outcome under setting [1] is “inactive; no positive results”. With `c1ccc2c(c1)Oc1ccccc1O2`, under setting [1], the outcome was “inactive; no positive results”.

Regarding `CCCCC(CC)COP(=O)(OCC(CC)CCCC)OCC(CC)CCCC` (configuration not stated), the Potency under setting [6] was 5.89 mmol/kg/day. On to `c1ccncc1`, for which the Potency under setting [2] is 0.308 mmol/kg/day.

In the case of `C1CO1`, the Potency (TD50_Mouse_Note: TD50 is harmonic mean of more than one positive test, TargetSites_Mouse_Female: harderian gland, hematopoietic system, lung, mammary gland, uterus) is 1.45 mmol/kg/day.

For the compound `O=S(=O)(O)c1ccc(N=Nc2cc(S(=O)(=O)O)c3ccccc3c2O)c2ccccc12`, the outcome under setting [1] is “inactive; no positive results”.

`CN(C)C(=S)S[Se](SC(=S)N(C)C)(SC(=S)N(C)C)SC(=S)N(C)C`: the outcome under setting [1] is “inactive; no positive results”. On to `COc1cc(NC(=O)C(N=Nc2ccc(-c3ccc(N=NC(C(C)=O)C(=O)Nc4cc(OC)c(Cl)cc4OC)c(Cl)c3)cc2Cl)C(C)=O)c(OC)cc1Cl` (configuration not stated), for which the result (TargetSites_Mouse_BothSexes: no positive results) was inactive. As for `Nc1cc([N+](=O)[O-])ccc1O`, the outcome under setting [1] is “inactive; no positive results”. Turning to `Cc1ncc[nH]1`, the Potency under setting [2] was 9.52 mmol/kg/day. Turning to `Cc1ccc(N)c(C)c1`, for the setting “TargetSites_Mouse_Female: lung”, the Potency is 0.0787 mmol/kg/day. For the compound `O[C@@H]([C@H](O)[C@@H](O)CBr)[C@@H](O)CBr`, for the setting “TD50_Mouse_Note: positive test results only by intraperitoneal or intravenous injection, TD50 is harmonic mean of more than one positive, TargetSites_Mouse_Female: hematopoietic system, lung”, the Potency is 0.0484 mmol/kg/day. In the case of `OCC(CO)N[C@H]1C[C@](O)(CO)[C@@H](O)[C@H](O)[C@H]1O`, the outcome under setting [1] was “inactive; no positive results”. Regarding `OB(O)O`, under setting [1], the outcome is “inactive; no positive results”. On to `Cc1cccc(C)c1`, for which the outcome under setting [1] was “inactive; no positive results”. For the compound `COc1ccc(N)cc1N`, the Potency (TD50_Mouse_Note: TD50 is harmonic mean of more than one positive test, TargetSites_Mouse_Female: thyroid gland) is 3.83 mmol/kg/day.

For `CC1=NN(c2ccccc2)C(=O)C1`, under setting [1], the outcome was “inactive; no positive results”. For `CC(COc1ccccc1)N(CCCl)Cc1ccccc1` (configuration not stated), under “TD50_Mouse_Note: positive test results only by intraperitoneal or intravenous injection, TD50 is harmonic mean of more than one positive, TargetSites_Mouse_Female: peritoneal cavity”, the Potency is 0.0158 mmol/kg/day. Regarding `NS(=O)(=O)c1cc(C(=O)O)c(NCc2ccco2)cc1Cl`, the Potency (TargetSites_Mouse_Female: mammary gland) was 2.21 mmol/kg/day. Regarding `Nc1ncc([N+](=O)[O-])s1`, the outcome under setting [1] is “inactive; no positive results”. For `c1ccc(N=Nc2ccccc2)cc1`, under setting [1], the outcome is “inactive; no positive results”. For `Cc1ccc(N)cc1N`, the Potency reads like this: under setting [2], 1.04 mmol/kg/day; under setting [6], 0.219 mmol/kg/day.

Take `FC(F)(Cl)Cl`: the outcome under setting [1] was “inactive; no positive results”.
